Assay results from PubChem BioAssay AID1259407 (Chemical Carcinogenesis Research Information System (CCRIS), 2018).
Activity calls are given as the source filed them. No rule for the calls is given here.

System: CCRIS mutagenicity, Ames/micronucleus/aberration tests
Assay: CCRIS mutagenicity studies
[1] = Test System: AMES SALMONELLA TYPHIMURIUM, Strain/Indicator: TA98, Metabolic Activation: NONE, Method: PREINCUBATION
[2] = Test System: AMES SALMONELLA TYPHIMURIUM, Strain/Indicator: TA100, Metabolic Activation: NONE, Method: PREINCUBATION
[3] = Test System: AMES SALMONELLA TYPHIMURIUM, Strain/Indicator: TA1535, Metabolic Activation: HAMSTER, LIVER, S-9, AROCLOR 1254 (10%), Method: PREINCUBATION
[4] = Test System: AMES SALMONELLA TYPHIMURIUM, Strain/Indicator: TA1535, Metabolic Activation: NONE, Method: PREINCUBATION
[5] = Test System: AMES SALMONELLA TYPHIMURIUM, Strain/Indicator: TA1535, Metabolic Activation: RAT, LIVER, S-9, AROCLOR 1254 (10%), Method: PREINCUBATION
[6] = Test System: AMES SALMONELLA TYPHIMURIUM, Strain/Indicator: TA1537, Metabolic Activation: NONE, Method: PREINCUBATION
[7] = Test System: AMES SALMONELLA TYPHIMURIUM, Strain/Indicator: TA98, Metabolic Activation: RAT, LIVER, S-9, PCB, Method: PREINCUBATION
[8] = Test System: AMES SALMONELLA TYPHIMURIUM, Strain/Indicator: TA100, Metabolic Activation: RAT, LIVER, S-9, PCB, Method: PREINCUBATION

Measured: mutagenic call

[O]=[Mo](=[O])=[O]
inactive: Test System: AMES SALMONELLA TYPHIMURIUM, Strain/Indicator: TA97, Metabolic Activation: HAMSTER, LIVER, S-9, AROCLOR 1254 (10%), Method: PREINCUBATION inactive; negative | Test System: AMES SALMONELLA TYPHIMURIUM, Strain/Indicator: TA97, Metabolic Activation: HAMSTER, LIVER, S-9, AROCLOR 1254 (30%), Method: PREINCUBATION inactive; negative | Test System: AMES SALMONELLA TYPHIMURIUM, Strain/Indicator: TA97, Metabolic Activation: NONE, Method: PREINCUBATION inactive; negative | Test System: AMES SALMONELLA TYPHIMURIUM, Strain/Indicator: TA97, Metabolic Activation: RAT, LIVER, S-9, AROCLOR 1254 (10%), Method: PREINCUBATION inactive; negative | Test System: AMES SALMONELLA TYPHIMURIUM, Strain/Indicator: TA97, Metabolic Activation: RAT, LIVER, S-9, AROCLOR 1254 (30%), Method: PREINCUBATION inactive; negative | Test System: AMES SALMONELLA TYPHIMURIUM, Strain/Indicator: TA98, Metabolic Activation: HAMSTER, LIVER, S-9, AROCLOR 1254 (10 OR 30%), Method: PREINCUBATION inactive; negative | [1] inactive; negative | Test System: AMES SALMONELLA TYPHIMURIUM, Strain/Indicator: TA98, Metabolic Activation: RAT, LIVER, S-9, AROCLOR 1254 (10 OR 30%), Method: PREINCUBATION inactive; negative | Test System: AMES SALMONELLA TYPHIMURIUM, Strain/Indicator: TA100, Metabolic Activation: HAMSTER, LIVER, S-9, AROCLOR 1254 (10% OR 30%), Method: PREINCUBATION inactive; negative | [2] inactive; negative | Test System: AMES SALMONELLA TYPHIMURIUM, Strain/Indicator: TA100, Metabolic Activation: RAT, LIVER, S-9, AROCLOR 1254 (10% OR 30%), Method: PREINCUBATION inactive; negative | [3] inactive; negative | Test System: AMES SALMONELLA TYPHIMURIUM, Strain/Indicator: TA1535, Metabolic Activation: HAMSTER, LIVER, S-9, AROCLOR 1254 (30%), Method: PREINCUBATION inactive; negative | [4] inactive; negative | [5] inactive; negative | Test System: AMES SALMONELLA TYPHIMURIUM, Strain/Indicator: TA1535, Metabolic Activation: RAT, LIVER, S-9, AROCLOR 1254 (30%), Method: PREINCUBATION inactive; negative | Test System: AMES SALMONELLA TYPHIMURIUM, Strain/Indicator: TA1537, Metabolic Activation: HAMSTER, LIVER, S-9, AROCLOR 1254 (30%), Method: PREINCUBATION inactive; negative | [6] inactive; negative | Test System: AMES SALMONELLA TYPHIMURIUM, Strain/Indicator: TA1537, Metabolic Activation: RAT, LIVER, S-9, AROCLOR 1254 (30%), Method: PREINCUBATION inactive; negative | Test System: Mouse lymphoma, Strain/Indicator: L5178Y (tk+/tk-), Metabolic Activation: None, Method: Suspension/plate inactive; inconclusive (previous evaluation negative)
active: Test System: MOUSE LYMPHOMA, Strain/Indicator: L5178Y (TK+/TK-), Metabolic Activation: RAT, LIVER, S-9, AROCLOR 1254, Method: SUSPENSION/PLATE active; positive. reevaluation of results: positive

COc1nncc2ccccc12
inactive: [1] inactive; negative | [7] inactive; negative | [2] inactive; negative | [8] inactive; negative

CCC(C)NC(=O)C=Cc1ccc([N+](=O)[O-])o1 (configuration not stated)
active: [1] active; positive

COc1nncc2ccncc12
inactive: [1] inactive; negative | [7] inactive; negative | [2] inactive; negative | [8] inactive; negative

Nc1cc(Cl)c(Cl)cc1Cl
inactive: Test System: UDS RODENT HEPATOCYTES, Strain/Indicator: THY INCORP (NON-S-PHASE), Metabolic Activation: NONE, Method: AUTORADIOGRAPHY inactive; negative

CC(=O)O.CC(=O)O.O.O.[O]=[U]=[O]
active: Test System: Chinese hamster ovary, Strain/Indicator: EM9 (HPRT)/6-Thioguanine, Metabolic Activation: None, Method: Standard plate active; positive, em9 cho cells are xrcc1-deficient.
inactive: Test System: Chinese hamster ovary, Strain/Indicator: AA8 (HPRT)/6-Thioguanine, Metabolic Activation: None, Method: Standard plate inactive; negative

Cc1cccc2c3c(c4cc5ccccc5cc4c12)O3
active: [1] active; positive

CC(C)N
inactive: Test System: AMES SALMONELLA TYPHIMURIUM, Strain/Indicator: TA98, Metabolic Activation: HAMSTER, LIVER, S-9, AROCLOR 1254 (10%), Method: PREINCUBATION inactive; negative | [1] inactive; negative | Test System: AMES SALMONELLA TYPHIMURIUM, Strain/Indicator: TA98, Metabolic Activation: RAT, LIVER, S-9, AROCLOR 1254 (10%), Method: PREINCUBATION inactive; negative | Test System: AMES SALMONELLA TYPHIMURIUM, Strain/Indicator: TA100, Metabolic Activation: HAMSTER, LIVER, S-9, AROCLOR 1254 (10%), Method: PREINCUBATION inactive; negative | [2] inactive; negative | Test System: AMES SALMONELLA TYPHIMURIUM, Strain/Indicator: TA100, Metabolic Activation: RAT, LIVER, S-9, AROCLOR 1254 (10%), Method: PREINCUBATION inactive; negative | [3] inactive; negative | [4] inactive; negative | [5] inactive; negative | Test System: AMES SALMONELLA TYPHIMURIUM, Strain/Indicator: TA1537, Metabolic Activation: HAMSTER, LIVER, S-9, AROCLOR 1254 (10%), Method: PREINCUBATION inactive; negative | [6] inactive; negative | Test System: AMES SALMONELLA TYPHIMURIUM, Strain/Indicator: TA1537, Metabolic Activation: RAT, LIVER, S-9, AROCLOR 1254 (10%), Method: PREINCUBATION inactive; negative | Test System: UDS RODENT HEPATOCYTES, Strain/Indicator: THY INCORP (NON-S-PHASE), Metabolic Activation: NONE, Method: LIQUID SCINTILLATION COUNTING inactive; negative

CC(=O)Nc1ccc2c3c(cccc13)-c1ccc(O)cc1-2
active: Test System: AMES SALMONELLA TYPHIMURIUM, Strain/Indicator: TA98, Metabolic Activation: NONE, Method: STANDARD PLATE active; positive | Test System: AMES SALMONELLA TYPHIMURIUM, Strain/Indicator: TA98, Metabolic Activation: RAT, LIVER, S-9, AROCLOR 1254, Method: STANDARD PLATE active; positive

ClC1(Cl)C2(Cl)C3(Cl)C4(Cl)C(Cl)(Cl)C5(Cl)C3(Cl)C1(Cl)C5(Cl)C24Cl (configuration not stated)
inactive: Test System: AMES SALMONELLA TYPHIMURIUM, Strain/Indicator: TA98, Metabolic Activation: HAMSTER, LIVER, S-9, AROCLOR 1254, Method: PREINCUBATION inactive; negative | [1] inactive; negative | Test System: AMES SALMONELLA TYPHIMURIUM, Strain/Indicator: TA98, Metabolic Activation: RAT, LIVER, S-9, AROCLOR 1254, Method: PREINCUBATION inactive; negative | Test System: AMES SALMONELLA TYPHIMURIUM, Strain/Indicator: TA100, Metabolic Activation: HAMSTER, LIVER, S-9, AROCLOR 1254, Method: PREINCUBATION inactive; negative | [2] inactive; negative | Test System: AMES SALMONELLA TYPHIMURIUM, Strain/Indicator: TA100, Metabolic Activation: RAT, LIVER, S-9, AROCLOR 1254, Method: PREINCUBATION inactive; negative | Test System: AMES SALMONELLA TYPHIMURIUM, Strain/Indicator: TA1535, Metabolic Activation: HAMSTER, LIVER, S-9, AROCLOR 1254, Method: PREINCUBATION inactive; negative | [4] inactive; negative | Test System: AMES SALMONELLA TYPHIMURIUM, Strain/Indicator: TA1535, Metabolic Activation: RAT, LIVER, S-9, AROCLOR 1254, Method: PREINCUBATION inactive; negative | Test System: AMES SALMONELLA TYPHIMURIUM, Strain/Indicator: TA1537, Metabolic Activation: HAMSTER, LIVER, S-9, AROCLOR 1254, Method: PREINCUBATION inactive; negative | [6] inactive; negative | Test System: AMES SALMONELLA TYPHIMURIUM, Strain/Indicator: TA1537, Metabolic Activation: RAT, LIVER, S-9, AROCLOR 1254, Method: PREINCUBATION inactive; negative

Cc1cc2[nH]c3cc(C)c4ccccc4c3c2c2ccccc12
active: Test System: AMES SALMONELLA TYPHIMURIUM, Strain/Indicator: TA100, Metabolic Activation: RAT, LIVER, S-9, AROCLOR 1254, Method: STANDARD PLATE active; positive
